# Values joined by “and” are separate entries in the source; they are usually repeats but may differ in a detail not shown here. Identical values can stand only once. Counter-ions that a name gives are not always drawn.
# B1: AB0024: humanized anti-LOXL2 monoclonal antibody; inhibits LOXL2 enzymatic activity, binds epitope within SRCR3-4; VH SEQ ID NO:8, VL SEQ ID NO:9 (antibody, V domains shown)
# VH: QVQLVQSGAEVKKPGASVKVSCKASGYAFTYYLIEWVRQAPGQGLEWIGVINPGSGGTNYNEKFKGRATITADKSTSTAYMELSSLRSEDTAVYFCARNWMNFDYWGQGTTVTVSS
# VL: DIVMTQTPLSLSVTPGQPASISCRSSKSLLHSNGNTYLYWFLQKPGQSPQFLIYRMSNLASGVPDRFSGSGSGTDFTLKISRVEAEDVGVYYCMQHLEYPYTFGGGTKVEIK
# Assays:
# [1] = system: liver fibrosis in subjects with chronic hepatitis B (CHB); test: Liver biopsy (Ishak fibrosis score) in CHB subjects before and after 240 weeks of TDF; assay type: in vivo, human; conditions: for Chance of regression of cirrhosis at week 240: cirrhotic subjects
# Description: Serum LOXL2 levels were assessed in subjects with chronic hepatitis B (CHB) and liver fibrosis, both before treatment and after 240 weeks of treatment with 300 mg tenofovir disoproxil fumarate (TDF). Liver biopsies were taken from 348 human subjects with CHB, prior to treatment and after 240 weeks of treatment with TDF. The biopsies were scored by pathologists using the Ishak scale for assessment of fibrosis. […] Of the 96 subjects who began the study with biopsy-proven cirrhosis, 74% had regression of cirrhosis after 240 weeks of treatment. […] At week 240 following treatment, 42 of these 81 subjects had cirrhosis regression, 16 had persistent cirrhosis, 2 had progressed to cirrhosis over the course of treatment, 18 were non-cirrhotic subjects with no change in fibrosis, and 3 were non-cirrhotic subjects with at least a 2-point reduction in fibrosis as measured by Ishak.
# serum LOXL2 = test: Serum LOXL2 by ELISA at baseline and week 240 of TDF treatment in CHB subjects; assay type: in vivo, human; conditions: for Median serum LOXL2: LOQ = 440 pg/mL
# Source text: At week 240 following treatment, 42 of these 81 subjects had cirrhosis regression, 16 had persistent cirrhosis, 2 had progressed to cirrhosis over the course of treatment, 18 were non-cirrhotic subjects with no change in fibrosis, and 3 were non-cirrhotic subjects with at least a 2-point reduction in fibrosis as measured by Ishak.
# cancer = test: Cancer patients treated with anti-LOXL2 antibody AB0024: time to progression; assay type: in vivo, human; conditions: individual cancer patients
# Source text: Blood samples were obtained at Day 1 on which anti-LOXL2 treatment began (sample taken before anti-LOXL2 treatment); and on days 29 and 57 following the beginning of anti-LOXL2 treatment.
# LOXL2 = target: T1, LOXL2 (Homo sapiens, UniProt Q9Y4K0); test: LOXL2 immunoassay of plasma/serum from patients receiving AB0024; assay type: in vivo; conditions: samples day 1 (pre-dose), 29 and 57
# T1 construct: from tissue; host or cells: plasma and serum of human cancer patients
# T1 sequence (Q9Y4K0 26-774): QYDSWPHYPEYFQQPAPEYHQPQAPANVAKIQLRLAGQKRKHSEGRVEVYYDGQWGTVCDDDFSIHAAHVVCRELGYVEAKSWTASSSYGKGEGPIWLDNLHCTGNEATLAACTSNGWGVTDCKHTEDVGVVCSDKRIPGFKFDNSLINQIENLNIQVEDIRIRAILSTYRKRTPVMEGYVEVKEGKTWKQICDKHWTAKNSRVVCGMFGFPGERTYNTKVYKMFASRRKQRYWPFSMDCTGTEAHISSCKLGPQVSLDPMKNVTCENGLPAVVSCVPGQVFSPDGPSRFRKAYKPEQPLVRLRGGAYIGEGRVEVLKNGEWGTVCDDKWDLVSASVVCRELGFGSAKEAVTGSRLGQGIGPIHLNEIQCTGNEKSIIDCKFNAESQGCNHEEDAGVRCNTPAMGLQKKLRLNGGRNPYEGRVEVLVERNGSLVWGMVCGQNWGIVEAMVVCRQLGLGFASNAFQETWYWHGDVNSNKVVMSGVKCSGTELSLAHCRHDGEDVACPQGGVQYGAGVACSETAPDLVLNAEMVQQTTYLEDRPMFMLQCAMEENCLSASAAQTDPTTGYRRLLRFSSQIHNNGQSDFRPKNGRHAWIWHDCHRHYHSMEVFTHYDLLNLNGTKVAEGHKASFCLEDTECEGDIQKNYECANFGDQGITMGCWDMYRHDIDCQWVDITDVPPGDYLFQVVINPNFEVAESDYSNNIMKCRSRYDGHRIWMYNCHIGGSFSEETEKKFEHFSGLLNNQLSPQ
# Description: Standard single-spot uncoated electrode plates from MesoScale Discovery (MSD) (cat #L15XA-3) were coated overnight at 4° C. with a 30 μl volume of a solution of 3 μg/ml rabbit anti-human-LOXL2 polyclonal antibody formulated in phosphate-buffered saline (PBS). After coating, the wells of the plates were blocked by addition of a solution of 5% (w/v) Blocker A (MSD cat#R93AA-1) in PBS. After the blocking step, plates were washed 3 times in PBS containing 0.05% Tween-20 non-ionic detergent, using an automated plate washer. Human samples to be tested (serum or plasma) were prepared separately by diluting them 1:4 in PBS (1 part serum, 3 parts PBS). Samples were then added to each well of the plate. Samples were incubated with rotary shaking (300-600 rpm) for 2-3 hours at room temperature. After sample binding, the plates were again washed 3 times in PBS containing 0.05% Tween-20 detergent, using an automated plate washer. […]
# 1× Read Buffer T with Surfactants (MSD cat#R92TC-2) was added to each well, followed by immediate measurement of the plate on the MSD SectorImager 2400 instrument.
# Test human samples were given a relative quantitative value of LOXL2 by comparison to the calibrator curve on the same assay plate, comprised of purified recombinant human LOXL2 protein (R&D Systems) added in known concentrations to human serum or plasma pooled from normal healthy donors. […]
# [2] = Wk 240, Persistent Cirrhosis (n = 16), baseline 31%
# [3] = baseline to Wk 240, Non-Cirrhotic No Δ (n = 18)
# [4] = baseline to Wk 240, Persistent Cirrhosis (n = 16)
# [5] = baseline to Wk 240, Reversed Cirrhosis (n = 42)
molecule,measurement,setting,value
"CC(C)OC(=O)OCOP(=O)(CO[C@H](C)Cn1cnc2c(N)ncnc21)OCOC(=O)OC(C)C [TDF, tenofovir disoproxil fumarate]","Subjects with improvement in, or no progression of, liver fibrosis","[1]; 348 CHB subjects, 300 mg, 240 weeks",96.3%
same,Chance of regression of cirrhosis at week 240,[1]; baseline serum LOXL2 above 3000 pg/mL,29%
same,Chance of regression of cirrhosis at week 240,[1]; baseline serum LOXL2 between 1500 and 3000 pg/mL,70%
same,Chance of regression of cirrhosis at week 240,[1]; baseline serum LOXL2 less than 1500 pg/mL,88%
same,Patients with regression or improvement of Ishak fibrosis score,"[1]; of the 60 patients with baseline cirrhosis, 240 weeks",72%
same,Subjects with regression of cirrhosis,"[1]; of the 96 subjects with biopsy-proven cirrhosis at start, after 240 weeks",74%
same,Mean serum LOXL2,"serum LOXL2; Week 240, Ishak Stage 0-3, N 56 (baseline 510.2, N 18)",746.8 pg/mL
same,Mean serum LOXL2,"serum LOXL2; Week 240, Ishak Stage 4-6, N 25 (baseline 3298.2, N 63)",753.5 pg/mL
same,Mean serum LOXL2,"serum LOXL2; Week 240, all subjects N 81 (baseline 2678.6)",748.9 pg/mL
same,Subjects with serum LOXL2 >3000 pg/mL,"serum LOXL2; Wk 240, Non-Cirrhotic No Δ (n = 18), baseline 6%",0 (0%)
same,Subjects with serum LOXL2 <LoD,"serum LOXL2; Wk 240, Non-Cirrhotic No Δ (n = 18), baseline 22%",8 (44%)
same,Subjects with serum LOXL2 <LoQ,"serum LOXL2; Wk 240, Non-Cirrhotic No Δ (n = 18), baseline 56%",14 (78%)
same,Subjects with serum LOXL2 <1000 pg/mL,"serum LOXL2; Wk 240, Non-Cirrhotic No Δ (n = 18), baseline 72%",15 (83%)
same,Mean serum LOXL2,"serum LOXL2; Wk 240, Non-Cirrhotic No Δ (n = 18), baseline 798.4",436.8 pg/mL
same,Median serum LOXL2,"serum LOXL2; Wk 240, Non-Cirrhotic No Δ (n = 18), baseline <LOQ",<LOQ
same,Subjects with serum LOXL2 <LoD,"serum LOXL2; Wk 240, Persistent Cirrhosis (n = 16), baseline 6%",2 (13%)
same,Subjects with serum LOXL2 <LoQ,"serum LOXL2; Wk 240, Persistent Cirrhosis (n = 16), baseline 13%",8 (50%)
same,Subjects with serum LOXL2 <1000 pg/mL,serum LOXL2; [2],14 (88%)
same,Subjects with serum LOXL2 >3000 pg/mL,serum LOXL2; [2],0 (0%)
same,Median serum LOXL2,"serum LOXL2; Wk 240, Persistent Cirrhosis (n = 16), baseline 1863",LOQ
same,Mean serum LOXL2,"serum LOXL2; Wk 240, Persistent Cirrhosis (n = 16), baseline 9124.1",603.8 pg/mL
same,Subjects with serum LOXL2 <LoD,"serum LOXL2; Wk 240, Reversed Cirrhosis (n = 42), baseline 2%",13 (31%)
same,Subjects with serum LOXL2 >3000 pg/mL,"serum LOXL2; Wk 240, Reversed Cirrhosis (n = 42), baseline 5%",3 (7%)
same,Subjects with serum LOXL2 <LoQ,"serum LOXL2; Wk 240, Reversed Cirrhosis (n = 42), baseline 10%",29 (69%)
same,Subjects with serum LOXL2 <1000 pg/mL,"serum LOXL2; Wk 240, Reversed Cirrhosis (n = 42), baseline 48%",35 (83%)
same,Median serum LOXL2,"serum LOXL2; Wk 240, Reversed Cirrhosis (n = 42), baseline 1073",<LOQ
same,Mean serum LOXL2,"serum LOXL2; Wk 240, Reversed Cirrhosis (n = 42), baseline 1355.0",922.6 pg/mL
same,Subjects with Decrease in serum LOXL2,serum LOXL2; [3],9 (50%)
same,Subjects with Increase in serum LOXL2,serum LOXL2; [3],2 (11%)
same,Subjects with Decrease in serum LOXL2,serum LOXL2; [4],14 (88%)
same,Subjects with Increase in serum LOXL2,serum LOXL2; [4],0 (0%)
same,Subjects with Decrease in serum LOXL2,serum LOXL2; [5],37 (88%)
same,Subjects with Increase in serum LOXL2,serum LOXL2; [5],5 (12%)
same,Cirrhotic subjects with a reduction in LOXL2 levels,serum LOXL2; baseline to week 240,88%
same,Subjects with a reduction in serum LOXL2 levels,"serum LOXL2; of the 81 subjects, baseline to week 240",79%
same,Subjects with no change in LOXL2 levels,"serum LOXL2; of the 81 subjects, each with baseline below limit of quantitation",11%
B1,Time to progression,cancer; dose level 1 mpk,44 days and Stable and 57 days
same,Time to progression,cancer; dose level 3 mpk,38 days and 56 days and 42 days
same,Time to progression,cancer; dose level 10 mpk,57 days and 30 days and 51 days
same,Effect of antibody administration on LOXL2 signal in plasma/serum,LOXL2,did not clear or mask the LOXL2 signal
